Test results reported in US20040122218A1, “Pyrrolopyridine potassium channel openers” (priority 2002, published 2004).

What was measured:
Landrace pig bladders = test: In vitro functional model: field-stimulated bladder tissue strips; conditions: concentration range of 10^−9 to 10^−5 M, cumulative
Experimental: In Vitro Functional Model
Compounds were evaluated for functional BK channel opening activity using tissue strips obtained from Landrace pig bladders. Landrace pig bladders were obtained from female Landrace pigs of 9-30 kg. Landrace pigs were euthanized with an intraperitoneal injection of pentobarbital solution, Somlethal®, J.A. Webster Inc., Sterling Mass. The entire bladder was removed and immediately placed into Krebs Ringer bicarbonate solution (composition, mM: NaCl, 120; NaHCO3, 20; dextrose, 11; KCl, 4.7; CaCl2, 2.5; MgSO4, 1.5; KH2PO4, 1.2; K2EDTA, 0.01, equilibrated with 5% CO2/95% O2 pH 7.4 at 37° C.). Propranolol (0.004 mM) was included in all of the assays to block β-adrenoceptors. The trigonal and dome portions were discarded. Strips 3-5 mm wide and 20 mm long were prepared from the remaining tissue cut in a circular fashion. The mucosal layer was removed. One end was fixed to a stationary glass rod and the other to a Grass FT03 transducer at a basal preload of 1.0 gram. Two parallel platinum electrodes were included in the stationary glass rod to provide field stimulation of 0.05 Hz, 0.5 milli-seconds at 20 volts. […] The maximal efficacy of each compound (expressed as % relative to P1075) is reported. […] Agonist potencies were also expressed as an index relative to P1075. The index was calculated by dividing the ED50 for P1075 by the ED50 for the test agonist in a given tissue. […]

| melting point | SMILES | effect on stimulated twitch (Landrace pig bladders) |
| --- | --- | --- |
| 207 to 209 °C | N#Cc1c(N2CCC[C@@H]2CO)[nH]c2cccnc12 [Example 9, (R)-2-(2-Hydroxymethyl-pyrrolidin-1-yl)-1H-pyrrolo [3,2-b]pyridine-3-carbonitrile] | – |
| 207 to 209 °C | N#Cc1c(N2CCC[C@H]2CO)[nH]c2cccnc12 [Example 10, (S)-2-(2-Hydroxymethyl-pyrrolidin-1-yl)-1H-pyrrolo [3,2-b]pyridine-3-carbonitrile] | – |
| 241 to 242 °C | N#Cc1c(N2CCCCC2)[nH]c2cccnc12 [Example 18, 2-Piperidin-1-yl-1H-pyrrolo[3,2-b]pyridine-3-carbonitrile] | – |
| – | CCC(C)(C)N=C(NC#N)Nc1cccnc1 [Example P1075] | completely eliminated the stimulated twitch |
